Assay results taken from ChEMBL document CHEMBL3885881, “DrugMatrix”.

Organism: Rattus norvegicus
Test: DrugMatrix - Regimen: Daily Repeat
Assay type: toxicity, organism-based, Sprague-Dawley
Set-up: regimen Daily Repeat, gender Male, age 6-8 weeks
Details: in vivo, po, route oral GAVAGE, vehicle 100 % WATER; for ABSOLUTE BASOPHIL / ABSOLUTE EOSINOPHIL / ABSOLUTE LYMPHOCYTE / ABSOLUTE MONOCYTE / ABSOLUTE SEGMENTED NEUTROPHIL / BASOPHIL / EOSINOPHIL / ERYTHROCYTE COUNT / HEMATOCRIT / HEMOGLOBIN / LEUKOCYTE COUNT / LYMPHOCYTE / MEAN CORPUSCULAR HEMOGLOBIN / MEAN CORPUSCULAR HEMOGLOBIN CONCENTRATION / MEAN CORPUSCULAR VOLUME / MONOCYTE / NEUTROPHIL / NUCLEATED RED BLOOD CELLS / PLATELET COUNT: tissue Blood; for ALANINE AMINOTRANSFERASE / ALBUMIN / ALKALINE PHOSPHATASE / ASPARTATE AMINOTRANSFERASE / BLOOD UREA NITROGEN / CARBON DIOXIDE / CHLORIDE / CHOLESTEROL / CREATINE PHOSPHOKINASE / CREATININE / GLUCOSE / LACTATE DEHYDROGENASE / LIPASE / PHOSPHORUS / POTASSIUM / SODIUM / TOTAL BILIRUBIN / TOTAL PROTEIN / URIC ACID: tissue Plasma
[1] = 0 mg/kg, 72 h, dose level Control, time 3 day
[2] = 0 mg/kg, 120 h, dose level Control, time 5 day
[3] = 56 mg/kg, 72 h, dose level Low, time 3 day

## CC[C@H]1OC(=O)[C@H](C)[C@@H](O[C@H]2C[C@@](C)(OC)[C@@H](O)[C@H](C)O2)[C@H](C)[C@@H](O[C@@H]2O[C@H](C)C[C@H](N(C)C)[C@H]2O)[C@](C)(OC)C[C@@H](C)C(=O)[C@H](C)[C@@H](O)[C@]1(C)O [CLARITHROMYCIN]
[1]
  ABSOLUTE BASOPHIL: 0 CELLS/uL
  ABSOLUTE EOSINOPHIL: 91.5 CELLS/uL
  ABSOLUTE LYMPHOCYTE: 14108.83 CELLS/uL
  ABSOLUTE MONOCYTE: 81 CELLS/uL
  ABSOLUTE SEGMENTED NEUTROPHIL: 818.67 CELLS/uL
  BASOPHIL: 0%
  EOSINOPHIL: 0.67%
  ERYTHROCYTE COUNT: 5.56 x10E6/uL
  HEMATOCRIT: 34.5%
  HEMOGLOBIN: 13.45 G/DL
  LEUKOCYTE COUNT: 15.1 x10E3/uL
  LYMPHOCYTE: 93%
  MEAN CORPUSCULAR HEMOGLOBIN: 24.2 pg
  MEAN CORPUSCULAR HEMOGLOBIN CONCENTRATION: 38.98 G/DL
  MEAN CORPUSCULAR VOLUME: 62.07 fL
  MONOCYTE: 0.5%
  NEUTROPHIL: 5.83%
  NUCLEATED RED BLOOD CELLS: 0 /100WBC
  PLATELET COUNT: 1193.33 x10E3/uL
  ALANINE AMINOTRANSFERASE: 60.33 u/L
  ALBUMIN: 4 G/DL
  ALKALINE PHOSPHATASE: 334.83 u/L
  ASPARTATE AMINOTRANSFERASE: 74.5 u/L
  BLOOD UREA NITROGEN: 13.5 mg/dL
  CARBON DIOXIDE: 30.33 mmol/L
  CHLORIDE: 98.33 MEQ/L
  CHOLESTEROL: 71.17 mg/dL
  CREATINE PHOSPHOKINASE: 212 u/L
  CREATININE: 0.21 mg/dL
  GLUCOSE: 173.17 mg/dL
  LACTATE DEHYDROGENASE: 101.5 u/L
  LIPASE: 24.17 u/L
  PHOSPHORUS: 10.87 mg/dL
  POTASSIUM: 6.06 MEQ/L
  SODIUM: 140.58 MEQ/L
  TOTAL BILIRUBIN: 0.17 mg/dL
  TOTAL PROTEIN: 5.9 G/DL
  URIC ACID: 1.23 mg/dL
[2]
  ABSOLUTE BASOPHIL: 0 CELLS/uL
  ABSOLUTE EOSINOPHIL: 34.5 CELLS/uL
  ABSOLUTE LYMPHOCYTE: 8181 CELLS/uL
  ABSOLUTE MONOCYTE: 82.67 CELLS/uL
  ABSOLUTE SEGMENTED NEUTROPHIL: 435.17 CELLS/uL
  BASOPHIL: 0%
  EOSINOPHIL: 0.5%
  ERYTHROCYTE COUNT: 5.31 x10E6/uL
  HEMATOCRIT: 33.83%
  HEMOGLOBIN: 13.37 G/DL
  LEUKOCYTE COUNT: 8.73 x10E3/uL
  LYMPHOCYTE: 93.5%
  MEAN CORPUSCULAR HEMOGLOBIN: 25.2 pg
  MEAN CORPUSCULAR HEMOGLOBIN CONCENTRATION: 39.53 G/DL
  MEAN CORPUSCULAR VOLUME: 63.73 fL
  MONOCYTE: 1%
  NEUTROPHIL: 5%
  NUCLEATED RED BLOOD CELLS: 0 /100WBC
  PLATELET COUNT: 1057.33 x10E3/uL
  ALANINE AMINOTRANSFERASE: 54.33 u/L
  ALBUMIN: 4.07 G/DL
  ALKALINE PHOSPHATASE: 308.67 u/L
  ASPARTATE AMINOTRANSFERASE: 83.17 u/L
  BLOOD UREA NITROGEN: 14 mg/dL
  CARBON DIOXIDE: 34 mmol/L
  CHLORIDE: 98 MEQ/L
  CHOLESTEROL: 71.33 mg/dL
  CREATINE PHOSPHOKINASE: 266.5 u/L
  CREATININE: 0.27 mg/dL
  GLUCOSE: 133 mg/dL
  LACTATE DEHYDROGENASE: 127 u/L
  LIPASE: 11.67 u/L
  PHOSPHORUS: 10.6 mg/dL
  POTASSIUM: 6.17 MEQ/L
  SODIUM: 142.68 MEQ/L
  TOTAL BILIRUBIN: 0.15 mg/dL
  TOTAL PROTEIN: 6.03 G/DL
  URIC ACID: 0.75 mg/dL
[3]
  ABSOLUTE BASOPHIL: 0 CELLS/uL
  ABSOLUTE EOSINOPHIL: 59.33 CELLS/uL
  ABSOLUTE LYMPHOCYTE: 13806.33 CELLS/uL
  ABSOLUTE MONOCYTE: 0 CELLS/uL
  ABSOLUTE SEGMENTED NEUTROPHIL: 1301 CELLS/uL
  BASOPHIL: 0%
  EOSINOPHIL: 0.33%
  ERYTHROCYTE COUNT: 5.56 x10E6/uL
  HEMATOCRIT: 35.47%
  HEMOGLOBIN: 13.53 G/DL
  LEUKOCYTE COUNT: 15.17 x10E3/uL
  LYMPHOCYTE: 91.67%
  MEAN CORPUSCULAR HEMOGLOBIN: 24.37 pg
  MEAN CORPUSCULAR HEMOGLOBIN CONCENTRATION: 38.2 G/DL
  MEAN CORPUSCULAR VOLUME: 63.77 fL
  MONOCYTE: 0%
  NEUTROPHIL: 8%
  NUCLEATED RED BLOOD CELLS: 0 /100WBC
  PLATELET COUNT: 1156.33 x10E3/uL
  ALANINE AMINOTRANSFERASE: 46.33 u/L
  ALBUMIN: 4.03 G/DL
  ALKALINE PHOSPHATASE: 259.67 u/L
  ASPARTATE AMINOTRANSFERASE: 70.67 u/L
  BLOOD UREA NITROGEN: 12.33 mg/dL
  CARBON DIOXIDE: 30.33 mmol/L
  CHLORIDE: 99.67 MEQ/L
  CHOLESTEROL: 68.33 mg/dL
  CREATINE PHOSPHOKINASE: 185.33 u/L
  CREATININE: 0.19 mg/dL
  GLUCOSE: 143.67 mg/dL
  LACTATE DEHYDROGENASE: 137.33 u/L
  LIPASE: 10.67 u/L
  PHOSPHORUS: 10.87 mg/dL
  POTASSIUM: 6.51 MEQ/L
  SODIUM: 141.97 MEQ/L
  TOTAL BILIRUBIN: 0.2 mg/dL
  TOTAL PROTEIN: 5.93 G/DL
  URIC ACID: 1.4 mg/dL
